Source: PMC9993459, “A novel selective spleen tyrosine kinase inhibitor SKI-O-703 (cevidoplenib) ameliorates lupus nephritis and serum-induced arthritis in murine models” (Clinical and Experimental Immunology, 2022)
“Also recorded” adds a separate entry of the source.

Columns and labels:
FLT3 = FLT3 (Homo sapiens, UniProt P36888); assay: Kinase assay (LANCE Ultra TR-FRET), FLT3; assay type: biochemical
Experimental: (§1) Kinase assays were conducted in 384-well plates using LANCE ultra 66 time-resolved fluorescence resonance energy transfer (TR-FRET) methods, according to the manufacturer’s instructions (Perkin-Elmer). In brief, each kinase was pre-incubated with a serially diluted compound for 30 min, incubated with ULight poly-GT peptide substrate and ATP for up to 1 h. Thirty minutes after adding Eu-labeled anti-phosphopeptides Ab diluted in LANCE Detection Buffer, LANCE signals were measured with an EnVision multilabel reader (Perkin-Elmer).

KOR = assay: Kinase assay (LANCE Ultra TR-FRET), KOR; assay type: biochemical
Experimental: as §1

mouse primary T cells = assay: Annexin V/7-AAD apoptosis assay in TCR-engaged primary T cells; assay type: cell-based; conditions: up to 5 μM
Experimental: Supplementary F igure 1. SKI -O-592 and - 703 s p a re TCR- mediated signaling in T cells
(A) The stru cture of SKI-O-703. (B-D) Human per ipheral T cells sorted fro m human peripheral blood mononuclear cells (B and D) and mouse primary T cells sorted from spleen (C ) wer e stimulated with 5 µ g/ml anti- CD3 and 2 µ g/ml anti- CD28 m Abs in the presence or absence of inhibitors as indicated. Af ter one hour (B) and 24 h ours (C and D) of culture, cells we re assaye d […]
by immunoblotting (B), FA C S ( C), and ELISA (D). […]
of Zap70 and its downstream target PLCγ1. It’s effect on the suppression of IL-2 production […]
Supplementary F igure 2. Gating strategy for FACS of spleen cells
Erythrocyte-d epleted mo use spleen cells w ere assayed by FACS. Whole live cells were gated as shown: plasma cells (C D19lo/- CD138hi), GC B cells (CD19+ CD138- GL-7h i FA S hi), follicular B cells (CD19+ CD43- CD23hi CD21-), marginal zone B cells (CD19+ C D43- CD21hi CD23lo ), and Tfh cells (CD4+ CXCR5+ PD-1hi).
Supplementary Figure 3. Differential susceptibility of short-lived and long-lived plasma […]
When spleen cells from NZB/W mice were assay ed by FACS as in Fig. 5, they were stained intracellularly with anti- Ki-67 mAb to distinguish Ki-67+ dividing cells from Ki-67- non-dividing cells among t h e CD138hi population. […]

mouse primary B cells [1] = assay: Annexin V/7-AAD apoptosis assay in B cells; assay type: cell-based; conditions: 24 h, effect more potent with anti-IgM than LPS
Experimental: (§2) Splenic CD19^+ B cells from C57BL/6 mice were sorted by MACS (Milteny Biotec), stained with 3 μM cell proliferation dye eFluor 670 (CP670; eBioscience), and cultured for 72 h in the presence of either 10 μg/ml LPS (Sigma Aldrich) or 5 μg/ml anti-mouse IgM (Jackson Immuno Research Laboratories), 10 μg/ml anti-CD40 mAb (Biolegend) and 10 ng/ml IL-4 (Peprotech), and assayed by FACS. To detect apoptotic cells, unstimulated cells were cultured for 24 h, stained with Annexin V and 7-aminoactinomycin D (7-AAD), and assayed by FACS.
(§3) Figure 2: in vitro effects of SKI-O -703 on the proliferation, survival, and differentiation of B cells. Mouse primary B cells were labeled with CP670, and stimulated with either anti-IgM mAb, CD40L and IL-4 (A) or LPS (B) for 72 h in the presence or absence of SKI-O-703 and tofacitinib at the indicated concentrations; they were then assayed by FACS. (C and D) Mouse primary B cells were cultured as in A and B for 24 h, stained with Annexin V and 7-AAD, and assayed by FACS. Representative FACS profiles and graphs displaying mean Annexin V-positivity are shown. (E) Human primary B cells were stimulated with CpG ODN plus IL-2 (to detect IgM and IgG) or CpG ODN 2006 plus IFN-α (to detect IL-6) in the presence or absence of inhibitors. The culture supernatants were assayed by ELISA. Graphs are expressed as % positivity relative to the controls (without inhibitor). […]

mouse primary B cells [2] = assay: CP670-dilution proliferation assay, LPS-stimulated B cells; assay type: cell-based; conditions: 72 h
Experimental: as §2, §3

FLT3, sequence (P36888 27-993, species assumed): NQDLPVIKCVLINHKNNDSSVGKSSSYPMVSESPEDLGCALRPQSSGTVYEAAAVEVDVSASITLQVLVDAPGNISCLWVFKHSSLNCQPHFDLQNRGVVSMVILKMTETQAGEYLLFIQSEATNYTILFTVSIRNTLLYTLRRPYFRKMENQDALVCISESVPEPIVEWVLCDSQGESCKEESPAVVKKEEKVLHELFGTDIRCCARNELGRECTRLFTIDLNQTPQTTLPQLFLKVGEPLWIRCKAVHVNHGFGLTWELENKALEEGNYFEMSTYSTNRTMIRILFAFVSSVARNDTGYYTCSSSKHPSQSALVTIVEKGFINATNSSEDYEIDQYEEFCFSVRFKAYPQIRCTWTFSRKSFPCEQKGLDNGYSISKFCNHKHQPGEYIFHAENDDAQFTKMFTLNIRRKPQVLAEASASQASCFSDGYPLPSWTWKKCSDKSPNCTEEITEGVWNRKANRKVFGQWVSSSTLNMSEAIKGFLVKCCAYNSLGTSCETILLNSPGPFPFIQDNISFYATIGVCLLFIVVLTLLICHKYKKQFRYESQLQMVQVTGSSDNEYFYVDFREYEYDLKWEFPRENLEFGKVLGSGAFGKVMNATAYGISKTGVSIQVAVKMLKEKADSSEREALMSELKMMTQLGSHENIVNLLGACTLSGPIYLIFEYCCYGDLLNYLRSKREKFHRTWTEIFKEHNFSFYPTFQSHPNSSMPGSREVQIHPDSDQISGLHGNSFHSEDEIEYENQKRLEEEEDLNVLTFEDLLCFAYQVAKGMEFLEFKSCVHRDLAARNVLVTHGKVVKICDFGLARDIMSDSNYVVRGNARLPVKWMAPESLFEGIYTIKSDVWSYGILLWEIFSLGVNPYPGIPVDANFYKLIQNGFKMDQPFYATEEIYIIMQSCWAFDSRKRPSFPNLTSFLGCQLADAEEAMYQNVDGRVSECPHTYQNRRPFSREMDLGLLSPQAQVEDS

Compound | Ratio to Syk (FLT3) (FLT3; IC50 ratio to Syk) | IC50 (FLT3; kinase activity, TR-FRET) | Ratio to Syk (KOR) (KOR; IC50 ratio to Syk) | IC50 (KOR; kinase activity, TR-FRET) | Proportions of early and late apoptotic T cells (mouse primary T cells) | Proportions of early and late apoptotic B cells (mouse primary B cells [1]) | Concentration required to significantly inhibit LPS-induced proliferation (mouse primary B cells [2])
Cc1nn(-c2ccnc(Nc3ccc4c(c3)c(C(=O)C3CC3)cn4C)n2)cc1CN1C[C@H](O)CO1 [SKI-O-592] | 289 | 1780 nM | 111 | 687 nM | – | – | –
CS(=O)(=O)O.CS(=O)(=O)O.Cc1nn(-c2ccnc(Nc3ccc4c(c3)c(C(=O)C3CC3)cn4C)n2)cc1CN1C[C@H](O)CO1 [SKI-O-703, (S)-cyclopropyl(5-((4-(4-((4-hydroxyisoxazolidin-2-yl)methyl)-3-methyl-1H-pyrazol-1-yl)pyrimidin-2-yl)amino)-1-methyl-1H-indol-3-yl)methanone dimesylate] | – | – | – | – | did not promote apoptotic cell death; also recorded: failed to increase | increased the proportions of early and late apoptotic cells | at least 5 μM
